Patent US20250002470A1, “NITROGEN-CONTAINING COMPOUND, PREPARATION METHOD THEREFOR AND APPLICATION THEREOF” (ZHEJIANG AIXPLORER BIOTECH CO., LTD., priority 2021, published 2025)
pIC50: −log10 of the molar value.

Experiments:
[1] = Safety investigation, oral administration to SD rats for 14 consecutive days; conditions: 14 days
NLRP3 = target: T1, NLRP3 (Homo sapiens, UniProt Q96P20); experiment: IL-1β (interleukin-1β) secretion in IFN-γ-differentiated, LPS/ATP-stimulated THP-1 cells (half inhibition rate of NLRP3); assay type: cell-based; conditions: IFN-γ 25 ng/mL, LPS 50 ng/mL, ATP 5 mM
T1 construct: endogenous in cells; host or cells: THP-1 cells (IFN-γ differentiated, LPS primed, ATP stimulated)
T1 sequence (Q96P20 whole entry): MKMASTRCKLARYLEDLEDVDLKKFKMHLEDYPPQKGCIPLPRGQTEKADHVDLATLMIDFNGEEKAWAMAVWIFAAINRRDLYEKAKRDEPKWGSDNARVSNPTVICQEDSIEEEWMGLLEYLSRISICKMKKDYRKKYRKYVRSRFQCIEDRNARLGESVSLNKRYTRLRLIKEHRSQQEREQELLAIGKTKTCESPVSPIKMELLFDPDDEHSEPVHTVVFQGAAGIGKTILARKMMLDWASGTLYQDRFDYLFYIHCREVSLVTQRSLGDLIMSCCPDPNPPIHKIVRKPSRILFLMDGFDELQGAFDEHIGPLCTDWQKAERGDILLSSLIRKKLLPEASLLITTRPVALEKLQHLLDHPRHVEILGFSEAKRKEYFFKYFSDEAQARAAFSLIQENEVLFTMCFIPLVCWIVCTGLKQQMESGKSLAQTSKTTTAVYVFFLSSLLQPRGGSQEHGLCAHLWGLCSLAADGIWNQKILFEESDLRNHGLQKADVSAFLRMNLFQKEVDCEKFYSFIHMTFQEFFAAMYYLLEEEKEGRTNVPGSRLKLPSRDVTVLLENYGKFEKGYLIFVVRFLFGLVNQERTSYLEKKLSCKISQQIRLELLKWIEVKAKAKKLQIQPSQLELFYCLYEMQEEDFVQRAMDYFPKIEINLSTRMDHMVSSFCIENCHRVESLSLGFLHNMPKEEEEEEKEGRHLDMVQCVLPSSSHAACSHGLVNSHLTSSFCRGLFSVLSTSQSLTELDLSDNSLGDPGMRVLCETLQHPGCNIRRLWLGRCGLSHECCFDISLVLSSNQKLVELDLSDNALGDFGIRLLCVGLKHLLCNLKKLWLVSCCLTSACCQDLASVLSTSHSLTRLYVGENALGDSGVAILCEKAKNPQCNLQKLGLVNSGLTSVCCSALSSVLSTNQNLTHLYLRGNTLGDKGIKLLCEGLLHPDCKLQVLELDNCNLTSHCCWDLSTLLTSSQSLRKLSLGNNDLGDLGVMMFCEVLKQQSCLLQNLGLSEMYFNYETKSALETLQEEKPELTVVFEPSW
Procedure, shortened: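 IFN-γ-differentiated THP-1 cells primed with LPS (final 50 ng/mL, 4 h, serum-free), then given compound for 1 h and ATP (final 5 mM) for 1 h at 37 °C. Secreted IL-1β in supernatant quantified by sandwich ELISA (mAb Mt175 capture, biotinylated mAb7P10 detection, streptavidin-HRP/TMB, 450 nm).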

IL-1β = IL-1β cytokine in LPS-induced sepsis mouse model; assay type: in vivo, C57BL/6J mice; conditions: for IL-1β: given 30 minutes before LPS (10 mg/kg i.p.), serum 2 hours after LPS
Description: The purpose of this study was to investigate and evaluate the inhibitory effect of the test compound on […] and IL-18 cytokine production in a mouse model of lipopolysaccharide (LPS)-induced sepsis.
6-8 weeks female C57BL/6J mice, randomized, 5 animals in the Naïve group, and the rest of the groups (vehicle group, 15 mg/kg group with embodiment 33 compound, 50 mg/kg group with embodiment 33 compound and 150 mg/kg group with embodiment 33 compound, wherein 15 mg/kg, 50 mg/kg and 150 mg/kg is the dosage of embodiment 33, mg/kg is referred to as mpk) 10 animals per group. Among them, the Naïve group was not stimulated with LPS, and the 10 mice in each group were intraperitoneally injected with LPS (10 mg/kg) to induce sepsis model in the mouse. The vehicle (corresponding to the vehicle group) and the test compound (corresponding to the 15mpk group of Example 33, the 50mpk group of Example 33 and the 150mpk group of Example 33 respectively) were administered 30 minutes before LPS stimulation. 2 hours after LPS stimulation, the mice were euthanized, and whole blood was collected from the heart and placed in EP tubes, left to stand at room temperature for 1 hour, and centrifuged at 8000 rpm for 10 minutes to collect serum for measurement of cytokines IL-10 and IL-18.
For the standard pellet in the IL-10 cytokine CBA kit, put the IL-10 standard pellet into a 15 mL centrifuge tube, add 4 mL of Assay Diluent, and let it stand at room temperature for more than 15 minutes; • After the supernatant sample is melted and mixed evenly, the supernatant is diluted 2 times; • Preparation of standard reagent: Add the diluent Assay Diluent in advance to the 96-well V-shaped bottom plate, 100 μL/well. Add 200 μL of the standard that has been left to stand for 15 minutes into the well plate, and add 100 μL each time to the diluent in sequence. Gradually dilute the standard to 11 gradients (double dilution each time). The 12th hole is used as Blank, 200 μL/well; • Preparation of Capture beads reagent: Take the capture beads in the IL-10 cytokine CBA kit and vortex for 30 seconds. Prepare the Beads as follows: 60 μL IL-10 beads+2440 μL capture beads diluent (60 wells); mix evenly, 50 μL/well, add it to a […] V-bottom plate; shake at 200 g for 5 minutes, and incubate at room temperature for 1 hour; • Preparation of Detection reagent: Take the PE Detection from the IL-10 cytokine CBA kit and vortex for 30 seconds. Prepare the PE as follows: 60 μL IL-10 Detection+2440 μL PE detection diluent; mix evenly. […]

With `Cc1nc(N[C@@H]2CCCC[C@H]2O)nnc1-c1ccc(C(F)(F)F)cc1O` [Embodiment 33] the “dose without any toxic effects” value [1] was at most 2000 mg/kg, the pIC50 (NLRP3) was 8.24 and the IL-1β (IL-1β; 15 mpk) was 310.1 ± 32.88. For the same compound, the IL-1β (IL-1β; 50 mpk) was 213.4 ± 25.66, the IL-1β (IL-1β; 150 mpk) was 19.36 ± 5.166 and the “inhibitory effect on IL-1β compared with the Vehicle group” value (IL-1β; three dose groups (15, 50, 150 mg/kg)) was “significant inhibitory effect”.
